Results from ChEMBL document CHEMBL3526001, “Attenuation of intestinal absorption by major efflux transporters: quantitative tools and strategies using a Caco-2 model” (Drug Metab Dispos, 2011).
Numbered stars: 1 amine (or outer) side, 2 acyl side, 3 side chain; on linkers, the order of the positions; unused ones are H or OH. Bridge positions count the residues as written; N and C are the ends. Square brackets hold non-standard residues; d marks the D form. Peptide text beside a SMILES is read from it. I, II: the chains in the order shown. Actinocin(9to1) = Cc1c2oc3c(C)ccc(C(=O)[*:1])c3nc-2c(C(=O)[*:2])c(N)c1=O; NMeV = CN[C@H](C(=O)O)C(C)C; Sar = CNCC(=O)O

How the values were obtained:
in vitro [1] = conditions: human, Caco-2
in vitro [2] = conditions: human, Caco-2; remark: listed apart in the source
clinical = conditions: human, in vivo
Description: Fraction absorbed in human

Intestine = assay: Ratio of intestine AUC in po dosed mdr1 knock out mouse to intestine AUC in po dosed wild type mouse; type: ADME, organism-based; conditions: in vivo
P-gp = assay: in vitro; conditions: human
in vitro [3] = conditions: human, Caco-2; remark: listed apart in the source
[4] = biological target: ATP-binding cassette sub-family C member 2 (Homo sapiens, UniProt Q92887); assay: Fold activity change at MRP2 ATPase (unknown origin) relative to control; type: ADME
Chain of ATP-binding cassette sub-family C member 2 (Q92887 whole entry): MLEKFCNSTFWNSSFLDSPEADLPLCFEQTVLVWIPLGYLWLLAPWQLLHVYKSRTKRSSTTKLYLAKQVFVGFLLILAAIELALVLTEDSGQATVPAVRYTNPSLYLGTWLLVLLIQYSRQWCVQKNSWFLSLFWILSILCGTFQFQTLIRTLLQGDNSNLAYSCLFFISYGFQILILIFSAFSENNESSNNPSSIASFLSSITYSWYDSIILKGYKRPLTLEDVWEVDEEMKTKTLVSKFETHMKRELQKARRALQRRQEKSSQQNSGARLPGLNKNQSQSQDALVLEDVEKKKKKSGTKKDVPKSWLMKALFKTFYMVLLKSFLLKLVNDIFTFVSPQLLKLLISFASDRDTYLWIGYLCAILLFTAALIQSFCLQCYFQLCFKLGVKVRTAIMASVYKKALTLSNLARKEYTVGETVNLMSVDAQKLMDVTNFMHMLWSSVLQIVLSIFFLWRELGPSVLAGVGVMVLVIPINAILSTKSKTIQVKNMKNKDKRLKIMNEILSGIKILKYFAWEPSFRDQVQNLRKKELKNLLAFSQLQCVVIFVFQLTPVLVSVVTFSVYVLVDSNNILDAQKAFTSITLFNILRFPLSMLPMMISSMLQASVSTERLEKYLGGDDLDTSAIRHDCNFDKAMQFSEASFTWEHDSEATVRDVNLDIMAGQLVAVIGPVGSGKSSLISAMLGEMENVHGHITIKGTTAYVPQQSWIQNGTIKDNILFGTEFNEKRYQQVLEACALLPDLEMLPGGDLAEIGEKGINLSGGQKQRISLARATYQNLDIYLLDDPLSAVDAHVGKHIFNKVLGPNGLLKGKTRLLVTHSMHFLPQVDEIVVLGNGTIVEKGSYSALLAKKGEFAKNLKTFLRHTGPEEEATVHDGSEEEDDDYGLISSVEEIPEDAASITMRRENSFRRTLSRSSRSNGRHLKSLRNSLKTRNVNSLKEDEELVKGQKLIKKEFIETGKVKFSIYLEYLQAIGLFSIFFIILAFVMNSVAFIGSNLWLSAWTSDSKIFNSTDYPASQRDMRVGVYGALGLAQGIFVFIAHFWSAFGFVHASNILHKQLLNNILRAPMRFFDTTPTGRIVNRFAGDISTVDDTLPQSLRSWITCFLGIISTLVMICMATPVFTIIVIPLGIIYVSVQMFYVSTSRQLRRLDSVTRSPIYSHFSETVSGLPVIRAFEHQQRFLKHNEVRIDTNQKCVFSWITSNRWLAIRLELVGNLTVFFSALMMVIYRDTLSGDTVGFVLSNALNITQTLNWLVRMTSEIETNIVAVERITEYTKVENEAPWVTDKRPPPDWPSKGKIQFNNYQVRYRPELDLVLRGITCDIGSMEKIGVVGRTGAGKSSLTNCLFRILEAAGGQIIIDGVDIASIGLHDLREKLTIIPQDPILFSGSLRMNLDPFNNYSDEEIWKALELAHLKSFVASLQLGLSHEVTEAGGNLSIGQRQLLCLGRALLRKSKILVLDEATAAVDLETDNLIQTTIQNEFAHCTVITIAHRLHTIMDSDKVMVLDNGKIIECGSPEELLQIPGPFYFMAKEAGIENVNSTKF

[5] = human, caco-2, 2 h, 10 µM
[6] = human, caco-2, 2 h, 10 µM; remark: listed apart in the source
MDCK [7] = assay: Efflux ratio of permeability from basolateral to apical over apical to basolateral side of MDCK cells expressing MDR1; type: ADME, cell-based, Canis lupus familiaris; conditions: dog
MDCK [8] = assay: Efflux ratio of permeability from basolateral to apical over apical to basolateral side of MDCK cells expressing BCRP; type: ADME, cell-based, Canis lupus familiaris; conditions: dog
Homo sapiens = species: Homo sapiens; conditions: in vivo
Description: Fraction absorbed in human

Compound	Papp A→B at 2 h, 10 µM (in vitro [1])	Papp B→A at 2 h, 10 µM (in vitro [2])	Fa (clinical)	Ratio AUC (Intestine)	efflux ratio at 2 h, 10 µM (P-gp; Caco-2)	efflux ratio at 2 h, 10 µM (in vitro [3])	fold change (FC) [4]	Papp [5]	efflux ratio at 2 h, 10 µM (P-gp; Caco-2, with LY335979 1 uM)	Papp [6]	Ratio (MDCK [7])	Ratio (MDCK [8])	Fabs (Homo sapiens)
CN/C(=N/CCSCc1nc[nH]c1C)NC#N [CIMETIDINE]	1.4 ×10⁻⁶ cm/s	4.8 ×10⁻⁶ cm/s	60%	0.95	1.8	3.5	–	–	–	–	–	–	–
COc1cc2c(c(OC)c1OC)-c1ccc(OC)c(=O)cc1[C@@H](NC(C)=O)CC2 [COLCHICINE]	–	–	44%	–	0.8	4.3	-0.4	–	–	–	–	–	–
Cc1c2oc3c(C)ccc(C(=O)N[C@@H]4C(=O)N[C@H](C(C)C)C(=O)N5CCC[C@H]5C(=O)N(C)CC(=O)N(C)[C@@H](C(C)C)C(=O)O[C@@H]4C)c3nc-2c(C(=O)N[C@@H]2C(=O)N[C@H](C(C)C)C(=O)N3CCC[C@H]3C(=O)N(C)CC(=O)N(C)[C@@H](C(C)C)C(=O)O[C@@H]2C)c(N)c1=O [DACTINOMYCIN] (I: T[dV]P[Sar][NMeV] / II: T[dV]P[Sar][NMeV]; ester I:1-I:C, II:1-II:C; linker I:N-II:N via Actinocin(9to1))	–	–	5%	–	–	6.4	–	4.5 ×10⁻⁶ cm/s	4	0.8 ×10⁻⁶ cm/s	–	–	–
COc1cccc2c1C(=O)c1c(O)c3c(c(O)c1C2=O)C[C@@](O)(C(C)=O)C[C@@H]3O[C@H]1C[C@H](N)[C@H](O)[C@H](C)O1 [DAUNORUBICIN]	–	–	10%	3	0.4	–	–	–	–	–	–	–	–
C[C@H]1O[C@@H](O[C@H]2[C@@H](O)C[C@H](O[C@H]3[C@@H](O)C[C@H](O[C@H]4CC[C@@]5(C)[C@H](CC[C@@H]6[C@@H]5C[C@@H](O)[C@]5(C)[C@@H](C7=CC(=O)OC7)CC[C@]65O)C4)O[C@@H]3C)O[C@@H]2C)C[C@H](O)[C@@H]1O [DIGOXIN]	–	–	68%	12	1	7.5	–	–	–	–	27	1.3	–
COc1ccc([C@@H]2Sc3ccccc3N(CCN(C)C)C(=O)[C@@H]2OC(C)=O)cc1 [DILTIAZEM]	12 ×10⁻⁶ cm/s	8.3 ×10⁻⁶ cm/s	–	–	–	0.7	–	–	0.4	–	0.8	–	–
O=c1[nH]c2ccccc2n1CCCN1CCC(n2c(=O)[nH]c3cc(Cl)ccc32)CC1 [DOMPERIDONE]	5.2 ×10⁻⁶ cm/s	15.4 ×10⁻⁶ cm/s	93%	–	–	–	3	–	–	–	–	–	–
CC[C@H]1OC(=O)[C@H](C)[C@@H](O[C@H]2C[C@@](C)(OC)[C@@H](O)[C@H](C)O2)[C@H](C)[C@@H](O[C@@H]2O[C@H](C)C[C@H](N(C)C)[C@H]2O)[C@](C)(O)C[C@@H](C)C(=O)[C@H](C)[C@@H](O)[C@]1(C)O [ERYTHROMYCIN]	0.3 ×10⁻⁶ cm/s	3 ×10⁻⁶ cm/s	35%	–	0.5	7.1	1	–	–	–	–	8.5	–
COc1cc([C@@H]2c3cc4c(cc3[C@@H](O[C@@H]3O[C@@H]5CO[C@@H](C)O[C@H]5[C@H](O)[C@H]3O)[C@H]3COC(=O)[C@H]23)OCO4)cc(OC)c1O [ETOPOSIDE]	0.5 ×10⁻⁶ cm/s	3 ×10⁻⁶ cm/s	25%	3.3	1.4	4.8	–	–	–	–	11	9.7	–
CC(C)n1c(/C=C/C(O)CC(O)CC(=O)O)c(-c2ccc(F)cc2)c2ccccc21 (centres undefined) [FLUVASTATIN]	–	–	98%	–	–	–	–	15.3 ×10⁻⁶ cm/s	12.3	1.5 ×10⁻⁶ cm/s	4.9	–	–
CN(Cc1cnc2nc(N)nc(N)c2n1)c1ccc(C(=O)N[C@@H](CCC(=O)O)C(=O)O)cc1 [METHOTREXATE]	1.2 ×10⁻⁶ cm/s	1.1 ×10⁻⁶ cm/s	–	–	–	0.9	-0.2	–	–	–	–	–	–
Cc1ccccc1N1C(=O)c2cc(S(N)(=O)=O)c(Cl)cc2NC1C (centres undefined) [METOLAZONE]	–	–	–	–	–	3.3	–	9.6 ×10⁻⁶ cm/s	2.1	1.8 ×10⁻⁶ cm/s	–	5.1	–
C=CCN1CC[C@]23c4c5ccc(O)c4O[C@H]2C(=O)CC[C@@]3(O)[C@H]1C5 [NALOXONE]	21.5 ×10⁻⁶ cm/s	10.3 ×10⁻⁶ cm/s	–	–	–	0.5	–	–	0.5	–	0.7	–	–
O=C(O)c1cc(/N=N/c2ccc(S(=O)(=O)Nc3ccccn3)cc2)ccc1O [SULFASALAZINE]	–	–	–	–	32.2	16.9	9	–	–	–	–	–	–
O=C1C(CC[S+]([O-])c2ccccc2)C(=O)N(c2ccccc2)N1c1ccccc1 (centres undefined) [SULFINPYRAZONE]	–	–	85%	–	–	3.3	–	5.8 ×10⁻⁶ cm/s	9	1.2 ×10⁻⁶ cm/s	–	–	–
CC[C@@]1(O)C(=O)OCc2c1cc1n(c2=O)Cc2cc3c(CN(C)C)c(O)ccc3nc2-1 [TOPOTECAN]	–	–	30%	–	–	6.9	–	7.1 ×10⁻⁶ cm/s	13.1	0.9 ×10⁻⁶ cm/s	–	2.4	–
CC[C@]1(O)C[C@@H]2CN(CCc3c([nH]c4ccccc34)[C@@](C(=O)OC)(c3cc4c(cc3OC)N(C)[C@H]3[C@@](O)(C(=O)OC)[C@H](OC(C)=O)[C@]5(CC)C=CCN6CC[C@]43[C@@H]65)C2)C1 [VINBLASTINE]	1 ×10⁻⁶ cm/s	11.9 ×10⁻⁶ cm/s	5%	0.7	2	13.5	–	–	–	–	–	1.8	–
IVERMECTIN	–	–	–	–	–	–	–	–	–	–	–	–	56%
